Test [1] addresses T1, MOZ-KAT6A (Homo sapiens, UniProt Q92794, A567V).
T1 construct: encoding amino acid residues 507 to 778 (Uniprot Q92794-1) of human KAT6A; made in house; host or cells: E. coli BL21 DE3
The test is described as follows: Revised Acetyltransferase Biochemical Assay, KAT6A. To be noted: Table 8 (MOZ-KAT6A), 1 μM Acetyl coenzyme A.

The target of test [2] is T2, HBO-KAT7 (Homo sapiens, UniProt O95251).
T2 construct: encoding amino acid residues 325 to 611 (Uniprot 095251-1) of human KAT7; made in house; host or cells: E. coli BL21 DE3 RIL
The test is described as follows: Revised Acetyltransferase Biochemical Assay, KAT7. To be noted: Table 9 (HBO-KAT7), 1 μM Acetyl coenzyme A.

The target of test [3] is T3, TIP60-KAT5 (Homo sapiens, UniProt Q92993).
T3 construct: encoding amino acid residues 2 to 461 (Uniprot Q92993-2) of human KAT5 isoform; made in house; host or cells: E. coli BL21 DE3
In words: Revised Acetyltransferase Biochemical Assay, KAT5. To be noted: 10 nM KAT5, 1 μM AcCoA, 100 nM histone H4, 90 min.

The target of a further test is T4, QKF-KAT6B (Homo sapiens, UniProt Q8WYB5).
T4 construct: purchased SignalChem K315-381BG
The test is described as follows: Revised Acetyltransferase Biochemical Assay, KAT6B. To be noted: 8 nM KAT6B, 1 μM AcCoA, 100 nM histone H3.1, 90 min. From the text: KAT6B was obtained from SignalChem, catalog ID: K315-381BG

Test [4] relates to histone H3K23 acetylation (KATE mediated) in U2OS cells. In words: Histone H3 Lysine 23 Acetylation Biomarker Assay (U2OS). In kind it is cell-based. To be noted: 96 well, 24 hours incubation. As to the method: Compounds may be tested for their ability to inhibit acetylation of the histone H3K23 marker, which is KATE mediated, in the following assay:
The cell line U2OS was seeded at a density of 9,000 cells per well in 96 well optical quality tissue culture plates in RPMI medium and 10% foetal bovine serum, and allowed to adhere for 24 hours under standard culture conditions (37 degree Celsius, 5% CO2). At the end of this period the medium was aspirated. Compound dilutions prepared in DMSO were added to medium, with negative control wells reserved for treatment with DMSO only and 100% inhibition positive controls receiving a potent inhibitor compound (e.g. cas 2055397-28-7, benzoic acid, 3-fluoro-5-(2-pyridinyl)-, 2-[(2-fluorophenyl)sulfonyl]hydrazide) (Baell, J., Nguyen, H. N., Leaver, D. J., Cleary, B. L., Lagiakos, H. R., Sheikh, B. N., Thomas. T. J., Aryl sulfonohydrazides, WO2016198507A1, 2016) at 10 μM concentration and 200 μL transferred to the cells. After incubation for 24 hours, the cells were fixed with 3.7% formaldehyde in PBS for 20 minutes at room temperature, washed (5×5 minutes) with phosphate buffer saline containing 0.1% Tween 20 and blocked with Odyssey blocking buffer (LI-COR, Lincoln, Nebr.) containing 0.1% TritonX100. Anti-H3K23ac specific antibody (Abcam ab177275) in Odyssey blocking buffer containing 0.1% Tween 20 was added and incubated for 16 hours at 4 degree Celsius. After washing (as above), a secondary antibody labelled with Alexa647 dye (LifeTechnologies) and Hoechst 33342 (1 μg/mL, SigmaAldrich) were added for 1 hour incubation. Plates were washed as previously and read on a PerkinElmer Phenix high content imaging platform. Using a Columbus image analysis pipeline, individual nuclei were located by Hoechst 33342 stain and the acetylation level was calculated from the Alexa647-related intensity in the same area. The resulting mean intensity per cell was directly converted to percent inhibition relative to controls on the same plate and the data fitted against a four-parameter logistic model to determine the 50% inhibitory concentration (IC50).

Test [5] addresses T3, TIP60-KAT5. The test is described as follows: Acetyltransferase biochemical assay (AlphaScreen), KAT5. The following applies: Table 1 (TIP60-KAT5); 0.4 μM Acetyl coenzyme A, histone H4, 10 nM enzyme.
Test [6] addresses T1, MOZ-KAT6A. In words: Acetyltransferase biochemical assay (AlphaScreen), KAT6A. The following applies: Table 2 (MOZ-KAT6A); 10 μM Acetyl coenzyme A, histone H3.1, 5 nM enzyme.
For test [7], the target named is T2, HBO-KAT7. In words: Acetyltransferase biochemical assay (AlphaScreen), KAT7. The following applies: Table 3 (HBO-KAT7); 0.4 μM Acetyl coenzyme A, histone H3.1, 40 nM enzyme.
Test [8] deals with T5, MOF-KAT8 (Homo sapiens, UniProt Q9H7Z6).
T5 sequence (Q9H7Z6 177-447): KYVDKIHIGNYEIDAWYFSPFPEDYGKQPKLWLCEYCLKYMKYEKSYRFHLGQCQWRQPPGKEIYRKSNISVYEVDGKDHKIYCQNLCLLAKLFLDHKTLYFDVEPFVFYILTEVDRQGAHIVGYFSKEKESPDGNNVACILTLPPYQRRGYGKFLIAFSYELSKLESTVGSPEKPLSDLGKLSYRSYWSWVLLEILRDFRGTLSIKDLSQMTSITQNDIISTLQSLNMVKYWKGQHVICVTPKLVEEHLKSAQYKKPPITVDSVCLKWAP
The test is described as follows: Acetyltransferase biochemical assay (AlphaScreen), KAT8. To be noted: Table 4 (MOF-KAT8); 0.4 μM Acetyl coenzyme A, histone H4, 20 nM enzyme.

The target of test [9] is T5, MOF-KAT8. In words: Revised Acetyltransferase Biochemical Assay, KAT8.
In test [10] the test system is histone H3 Lysine 14 acetylation (HBO1 mediated) in U2OS cells. In words: Histone H3 Lysine 14 Acetylation Biomarker Assay (384-well, U2OS). It is filed as cell-based. To be noted: Homo sapiens, serum free medium, 24 hours incubation. Put shortly:
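U2OS cells in serum-free medium treated with compound 24 h; DMSO and 10 μM reference inhibitor as 0% and 100% controls. Fixed cells immunostained for H3K14ac (AlexaFluor 488) with Hoechst nuclear mask, imaged by high-content analysis; per-cell intensity converted to % inhibition, IC50 by four-parameter logistic fit.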

Test [11] concerns histone H2A.Z Lysine 7 acetylation (TIP60 mediated) in U2OS cells. The test is described as follows: H2A.Z Lysine 7 Acetylation Biomarker Assay (384-well, U2OS). It is filed as cell-based. The following applies: Homo sapiens, serum free medium, 24 hours incubation. Put shortly:
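U2OS cells (3,000/well) were treated with compound for 24 h after a serum-free wash, then fixed. They were stained with anti-H2A.ZK7ac, an AlexaFluor 488 secondary and Hoechst. High-content imaging gave mean nuclear intensity per cell, converted to percent inhibition against on-plate controls, and IC50 came from a four-parameter logistic fit.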

From patent publication US20210380548A1, “Fused [1,2,4]Thiadiazine Derivatives Which Act as KAT Inhibitors of the MYST Family” (CTxT Pty Limited, priority 2017, published 2021) come the findings set out here.

T3 sequence (Q92993 2-461 isoform Q92993-2): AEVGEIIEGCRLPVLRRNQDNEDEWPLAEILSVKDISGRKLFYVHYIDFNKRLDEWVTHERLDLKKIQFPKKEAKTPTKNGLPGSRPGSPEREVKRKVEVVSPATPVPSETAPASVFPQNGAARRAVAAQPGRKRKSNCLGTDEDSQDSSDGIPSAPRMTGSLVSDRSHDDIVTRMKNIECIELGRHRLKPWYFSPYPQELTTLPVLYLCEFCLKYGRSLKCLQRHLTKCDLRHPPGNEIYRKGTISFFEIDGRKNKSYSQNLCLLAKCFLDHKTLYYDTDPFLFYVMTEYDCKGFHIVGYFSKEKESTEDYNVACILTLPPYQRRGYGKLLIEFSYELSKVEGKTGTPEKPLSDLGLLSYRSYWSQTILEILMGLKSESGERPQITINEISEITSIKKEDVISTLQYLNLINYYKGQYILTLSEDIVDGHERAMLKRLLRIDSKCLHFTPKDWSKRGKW
T4 sequence (Q8WYB5 whole entry): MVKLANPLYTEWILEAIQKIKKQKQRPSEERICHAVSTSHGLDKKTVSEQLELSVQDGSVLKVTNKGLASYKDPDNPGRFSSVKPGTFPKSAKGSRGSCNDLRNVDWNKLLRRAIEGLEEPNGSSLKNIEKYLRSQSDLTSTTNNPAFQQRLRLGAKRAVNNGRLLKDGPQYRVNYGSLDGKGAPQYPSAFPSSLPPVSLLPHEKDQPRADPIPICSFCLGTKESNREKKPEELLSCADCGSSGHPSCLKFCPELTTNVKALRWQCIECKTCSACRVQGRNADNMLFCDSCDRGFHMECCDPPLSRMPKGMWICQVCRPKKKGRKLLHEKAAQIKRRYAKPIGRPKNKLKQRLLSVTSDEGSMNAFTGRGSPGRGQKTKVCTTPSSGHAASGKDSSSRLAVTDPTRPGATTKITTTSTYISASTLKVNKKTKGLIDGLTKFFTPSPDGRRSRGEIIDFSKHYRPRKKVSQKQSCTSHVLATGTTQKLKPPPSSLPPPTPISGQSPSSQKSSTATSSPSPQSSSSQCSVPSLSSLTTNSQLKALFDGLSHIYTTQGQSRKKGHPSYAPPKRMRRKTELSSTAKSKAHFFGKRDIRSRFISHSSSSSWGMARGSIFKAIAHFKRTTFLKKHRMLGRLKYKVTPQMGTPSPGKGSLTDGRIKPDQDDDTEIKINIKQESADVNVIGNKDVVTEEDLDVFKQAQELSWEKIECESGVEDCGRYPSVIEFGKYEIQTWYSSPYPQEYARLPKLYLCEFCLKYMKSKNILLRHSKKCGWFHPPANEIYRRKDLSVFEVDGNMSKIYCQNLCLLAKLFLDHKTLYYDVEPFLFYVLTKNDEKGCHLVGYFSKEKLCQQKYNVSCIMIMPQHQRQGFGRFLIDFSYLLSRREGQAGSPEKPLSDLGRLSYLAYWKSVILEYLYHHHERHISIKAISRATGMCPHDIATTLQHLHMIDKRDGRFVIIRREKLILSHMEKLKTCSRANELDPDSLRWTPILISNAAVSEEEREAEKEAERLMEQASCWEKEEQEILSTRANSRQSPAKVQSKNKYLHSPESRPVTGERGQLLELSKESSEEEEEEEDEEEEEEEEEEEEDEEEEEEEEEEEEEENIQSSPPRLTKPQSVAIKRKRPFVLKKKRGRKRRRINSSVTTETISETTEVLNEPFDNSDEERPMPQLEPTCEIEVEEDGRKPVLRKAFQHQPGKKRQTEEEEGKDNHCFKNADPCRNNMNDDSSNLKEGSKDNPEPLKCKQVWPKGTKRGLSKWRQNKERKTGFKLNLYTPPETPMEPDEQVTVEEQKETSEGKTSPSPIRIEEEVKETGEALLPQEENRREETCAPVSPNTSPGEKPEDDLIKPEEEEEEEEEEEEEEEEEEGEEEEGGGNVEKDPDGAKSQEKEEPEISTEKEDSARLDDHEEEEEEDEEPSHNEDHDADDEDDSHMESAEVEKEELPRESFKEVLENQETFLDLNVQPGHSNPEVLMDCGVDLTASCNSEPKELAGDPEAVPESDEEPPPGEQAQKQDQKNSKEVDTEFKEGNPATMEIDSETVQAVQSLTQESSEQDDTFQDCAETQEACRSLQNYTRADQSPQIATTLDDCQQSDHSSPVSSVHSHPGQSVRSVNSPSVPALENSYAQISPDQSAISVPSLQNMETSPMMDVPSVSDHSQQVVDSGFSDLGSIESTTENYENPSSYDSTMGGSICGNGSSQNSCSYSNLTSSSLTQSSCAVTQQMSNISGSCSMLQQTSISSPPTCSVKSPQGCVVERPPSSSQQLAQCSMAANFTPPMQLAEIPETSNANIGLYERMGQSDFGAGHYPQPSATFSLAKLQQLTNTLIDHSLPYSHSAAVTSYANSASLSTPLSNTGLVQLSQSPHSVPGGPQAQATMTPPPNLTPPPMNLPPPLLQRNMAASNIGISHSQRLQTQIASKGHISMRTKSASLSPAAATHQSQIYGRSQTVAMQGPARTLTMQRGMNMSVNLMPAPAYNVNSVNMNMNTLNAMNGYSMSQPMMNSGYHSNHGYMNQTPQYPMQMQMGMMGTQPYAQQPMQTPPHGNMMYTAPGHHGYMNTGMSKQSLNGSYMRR
T2 sequence (O95251 with tags, fused parts or gaps): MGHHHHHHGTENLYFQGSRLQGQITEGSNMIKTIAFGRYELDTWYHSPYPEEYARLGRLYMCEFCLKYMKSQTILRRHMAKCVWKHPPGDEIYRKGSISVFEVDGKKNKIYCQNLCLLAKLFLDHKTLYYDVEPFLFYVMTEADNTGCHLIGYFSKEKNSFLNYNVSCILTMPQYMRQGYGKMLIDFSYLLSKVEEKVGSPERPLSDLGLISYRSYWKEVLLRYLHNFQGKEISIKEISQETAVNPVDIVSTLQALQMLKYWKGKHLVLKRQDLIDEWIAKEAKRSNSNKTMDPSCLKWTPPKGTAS
T1 sequence (Q92794 507-778 A567V limits assumed): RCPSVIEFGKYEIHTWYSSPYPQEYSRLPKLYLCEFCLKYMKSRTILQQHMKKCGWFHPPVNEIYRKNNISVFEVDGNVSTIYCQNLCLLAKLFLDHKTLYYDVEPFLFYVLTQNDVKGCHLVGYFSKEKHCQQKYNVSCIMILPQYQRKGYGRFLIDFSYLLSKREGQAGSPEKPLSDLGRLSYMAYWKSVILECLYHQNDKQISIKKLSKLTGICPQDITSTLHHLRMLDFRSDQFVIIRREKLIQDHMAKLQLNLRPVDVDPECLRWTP

Regarding `O=C(NCC1(c2ccccn2)CCCC1)C1=Nc2ccc(Cl)cc2S(=O)(=O)N1` [Example 198], the IC50 against MOZ-KAT6A [1] amounted to 0.351 µM; at HBO-KAT7 [2], 8.37 µM; on TIP60-KAT5 [3], 42.3 µM; against QKF-KAT6B it was 1.38 µM; in test [4] (Homo sapiens), 5.2 µM.
Turning to `O=C(NCC1(c2ccccn2)CCCCC1)C1=Nc2ccc(Cl)cc2S(=O)(=O)N1` [Example 197], the concentration for half-maximal inhibition (IC50) against MOZ-KAT6A [1] was 0.29 µM; against HBO-KAT7 [2], 7.53 µM; at TIP60-KAT5 [3] it was 23.6 µM; against QKF-KAT6B it was 0.78 µM; in test [4] (Homo sapiens), 3.04 µM.
`CNC(=O)c1ccc2c(c1)S(=O)(=O)NC(C(=O)NCC(c1ccccc1)c1ncco1)=N2` (stereo not shown) [Example 32, N^7-Methyl-N^3-(2-(oxazol-2-yl)-2-phenylethyl)-2H-benzo[e][1,2,4]thiadiazine-3,7-dicarboxamide 1,1-dioxide]: the IC50 against TIP60-KAT5 [5] is 5.04 µM; against MOZ-KAT6A [6], 0.0498 µM; on HBO-KAT7 [7] it was 4.64 µM; against MOF-KAT8 [8], 74.1 µM; against MOZ-KAT6A [1], 0.03 µM; against HBO-KAT7 [2], 0.356 µM. Moreover, the IC50 was 5.33 µM against TIP60-KAT5 [3], 0.155 µM against QKF-KAT6B, over 10 µM in test [4] (Homo sapiens) and over 125 µM on MOF-KAT8 [9].
As for `O=C(NCC(CO)C1CCCCC1)C1=Nc2ccc(Cl)cc2S(=O)(=O)N1` (stereo not shown) [Example 199], the 50% inhibitory concentration (IC50) against MOZ-KAT6A [1] was 0.838 µM; at HBO-KAT7 [2], 6.57 µM; against TIP60-KAT5 [3], 15.6 µM; against QKF-KAT6B, 6.17 µM; in test [4] (Homo sapiens), 10 µM.
As to `O=C(NCC(F)(F)c1ccccc1)C1=Nc2ccc(I)cc2S(=O)(=O)N1` [Example 238, N-(2,2-difluoro-2-phenylethyl)-7-iodo-2H-benzo[e][1,2,4]thiadiazine-3-carboxamide 1,1-dioxide], the half-maximal inhibitory concentration (IC50) against MOF-KAT8 [8] stood at 41.4 µM; on MOZ-KAT6A [1], 0.188 µM; on HBO-KAT7 [2], 0.881 µM; at TIP60-KAT5 [3], 1.81 µM; against QKF-KAT6B, 5.87 µM; in test [10], 13.7 µM. This molecule also had an IC50 against MOF-KAT8 [9] of 25.6 µM.
For `O=C(NCC(c1ccccc1)c1ncc[nH]1)C1=Nc2ccccc2S(=O)(=O)N1` (stereo not shown) [Example 113], the IC50 against TIP60-KAT5 [5] was over 125 µM; against MOZ-KAT6A [1], 99 µM; against HBO-KAT7 [2], 6.41 µM; on TIP60-KAT5 [3], over 125 µM; on QKF-KAT6B, over 125 µM; in test [4] (Homo sapiens), over 10 µM. At MOF-KAT8 [9], this molecule displayed an IC50 of over 125 µM.
On to `O=C(NCCC1CCCCC1)C1=Nc2ccc(Cl)cc2S(=O)(=O)N1` [Example 202], for which the IC50 is 1.04 µM against MOZ-KAT6A [1]; over 125 µM on HBO-KAT7 [2]; over 125 µM against TIP60-KAT5 [3]; over 125 µM against QKF-KAT6B; over 10 µM in [4] (Homo sapiens).
Take `Cn1cc(-c2ccc3c(c2)S(=O)(=O)NC(C(=O)NCC(c2ccccc2)c2ncco2)=N3)cn1` (stereo not shown) [Example 25, 7-(1-Methyl-1H-pyrazol-4-yl)-N-(2-(oxazol-2-yl)-2-phenylethyl)-2H-benzo[e][1,2,4]thiadiazine-3-carboxamide 1,1-dioxide]: the 50% inhibitory concentration (IC50) at TIP60-KAT5 [5] was determined as 6.89 µM; on MOZ-KAT6A [6], 0.0512 µM; on HBO-KAT7 [7], 1.93 µM; against MOF-KAT8 [8], 78.2 µM; on MOZ-KAT6A [1], 0.064 µM; against HBO-KAT7 [2], 12 µM. In addition, the IC50 is 5.91 µM against TIP60-KAT5 [3], 0.61 µM against QKF-KAT6B, 3.82 µM in test [4] (Homo sapiens) and over 125 µM against MOF-KAT8 [9].
Consider `COCc1ccccc1CCNC(=O)C1=Nc2ccc(I)cc2S(=O)(=O)N1` [Example 14, 7-Iodo-N-(2-(methoxymethyl)phenethyl)-2H-benzo[e][1,2,4]thiadiazine-3-carboxamide 1,1-dioxide], for which the IC50 against TIP60-KAT5 [5] worked out at 2.36 µM; at HBO-KAT7 [7], 1.78 µM; on MOZ-KAT6A [1], 0.01 µM; on HBO-KAT7 [2], 0.083 µM; against TIP60-KAT5 [3] it was 0.156 µM; against QKF-KAT6B, 0.058 µM. In addition, the concentration for half-maximal inhibition (IC50) in test [4] (Homo sapiens) was 1.06 µM; against MOF-KAT8 [9], 37.8 µM.
For `O=C(NCC(c1ccccc1)c1ncco1)C1=Nc2ccc(F)cc2S(=O)(=O)N1` (single isomer, unassigned) [Example 144], the half-inhibitory concentration (IC50) was 1.65 µM at TIP60-KAT5 [5]; 0.12 µM at MOZ-KAT6A [6]; 0.021 µM at MOZ-KAT6A [1]; 1.39 µM on HBO-KAT7 [2]; 1.06 µM against TIP60-KAT5 [3]; 0.459 µM against QKF-KAT6B. Also, the IC50 in test [4] was determined as 0.104 µM; at MOF-KAT8 [9] (read-out: IC50 (MOF-KAT8), Revised acetyltransferase biochemical assay, 20 nM KAT8, 1 μM AcCoA, 100 nM histone H4, 90 min), 46.7 µM.
Regarding `O=C(NCCC1CCCCC1)C1=Nc2ccc(I)cc2S(=O)(=O)N1` [Example 204], the IC50 on MOF-KAT8 [8] is over 125 µM; on MOZ-KAT6A [1], 0.122 µM; against HBO-KAT7 [2] it was 59.5 µM; on TIP60-KAT5 [3] it was over 125 µM; on QKF-KAT6B, over 125 µM; in test [11], over 40 µM. The IC50 in test [4] (Homo sapiens) is over 10 µM; against MOF-KAT8 [9], over 125 µM.
Turning to `O=C(NCC(c1ccccc1)c1ncco1)C1=Nc2ccc(-c3cn[nH]c3)cc2S(=O)(=O)N1` (stereo not shown) [Example 26, N-(2-(Oxazol-2-yl)-2-phenylethyl)-7-(1H-pyrazol-4-yl)-2H-benzo[e][1,2, 4]thiadiazine-3-carboxamide 1,1-dioxide], the half-maximal inhibitory concentration (IC50) at TIP60-KAT5 [5] was found to be 1.66 µM; at MOZ-KAT6A [6] it was 0.0287 µM; against HBO-KAT7 [7] it was 1.48 µM; on MOF-KAT8 [8] it was 23.7 µM; against MOZ-KAT6A [1], 0.041 µM; on HBO-KAT7 [2] it was 5.07 µM. Moreover, the IC50 came out at 5.94 µM at TIP60-KAT5 [3], 0.12 µM at QKF-KAT6B, 1.08 µM in test [4] (Homo sapiens) and 39.9 µM against MOF-KAT8 [9].
Take `COc1cc(C)cc(C(CNC(=O)C2=Nc3ccc(Cl)cc3S(=O)(=O)N2)c2ncco2)c1` (stereo not shown) [Example 159, 7-chloro-N-(2-(3-methoxy-5-methylphenyl)-2-(oxazol-2-yl)ethyl)-2H-benzo[e][1,2,4]thiadiazine-3-carboxamide 1,1-dioxide]: the half-maximal inhibitory concentration (IC50) on MOZ-KAT6A [1] came to 0.371 µM; at HBO-KAT7 [2], 0.295 µM; against TIP60-KAT5 [3], 3.2 µM; against QKF-KAT6B, 4.05 µM; in [4] (Homo sapiens), 5.09 µM; at MOF-KAT8 [9], 16.3 µM.
